Test results from patent US20220213061A9, “HETEROCYCLIC COMPOUNDS FOR MODULATING NR2F6” (TES Pharma S.r.l., priority 2020, published 2022).
Where a name gives a salt, the structure may show the parent alone.

These compounds were tested against T1, recombinant human NR2F6 protein (Homo sapiens, UniProt P10588) (assay: Biochemical NR2F6 binding assay (EnSpire label-free)). Settings: label-free binding to immobilized purified recombinant human NR2F6; ligands 1 nM to 100 uM, 1% DMSO.
T1 sequence (P10588 1-404): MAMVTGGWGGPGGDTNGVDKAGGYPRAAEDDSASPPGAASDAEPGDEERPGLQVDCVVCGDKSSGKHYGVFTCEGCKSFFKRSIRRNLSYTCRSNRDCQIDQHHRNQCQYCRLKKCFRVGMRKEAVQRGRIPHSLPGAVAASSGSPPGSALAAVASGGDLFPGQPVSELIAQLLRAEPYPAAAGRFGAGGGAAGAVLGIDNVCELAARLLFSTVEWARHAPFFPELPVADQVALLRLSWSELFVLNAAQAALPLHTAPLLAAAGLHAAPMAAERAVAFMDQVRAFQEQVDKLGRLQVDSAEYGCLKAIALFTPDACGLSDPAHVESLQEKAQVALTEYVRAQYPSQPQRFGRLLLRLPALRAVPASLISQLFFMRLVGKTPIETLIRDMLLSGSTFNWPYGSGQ
Experimental: Purified recombinant human NR2F6 protein was dissolved in immobilization buffer at pH 4.5 and then immobilized in EnSpire-LFB High-Sensitivity User-Activated Plates at the concentration of 50 μg/well plate and left in incubation for 16 h at 4° C. Wells with only immobilization buffer were used as negative control to check the protein coating efficiency. NR2F6 ligands were resuspended in DMSO at the concentration of 10 mM, then dispensed into a plate containing assay buffer at concentrations ranging from 1 nM to 100 uM using an HP-dispenser. DMSO was normalized at the 1% of volume of each well. The final readings were taken over a period of 30 minutes. The label-free responses were measured as shifts in reflected wavelength and are expressed in picometers (pm). Results were analyzed using the EnSpire label-free user interface software, and EC50 and graphs were generated using GraphPad PRISM software. In the tables below, A is <1 μM; B is 1 to 10 μM; C is 10 to 50 μM; and D is >50 μM.
For `O=C(Nc1cccc2cnccc12)[C@H]1CNC[C@@H]1c1ccccc1` [Compound I-29, (3R,4S)—N-(Isoquinolin-5-yl)-4-phenylpyrrolidine-3-carboxamide], the EC50 was less than 1 µM.
Compound `O=C(Nc1cccc(-c2cncnc2)c1)[C@@H]1CNC[C@H]1c1ccccc1` (racemic) [Compound I-53, (±)-trans-4-Phenyl-N-[3-(pyrimidin-5-yl)phenyl]pyrrolidine-3-carboxamide trihydrochloride] has an EC50 greater than 50 µM.
For `O=C(N[C@H]1C[C@H](Oc2ccc(F)cc2)C1)[C@H]1CNC[C@@H]1c1ccccc1` (racemic) [Compound I-91, (±)-trans-N-[trans-3-(4-Fluorophenoxy)cyclobutyl]-4-phenylpyrrolidine-3-carboxamide hydrochloride], the EC50 was 1 to 10 µM.
`O=C(Nc1cccc(-c2ccccc2)c1)[C@@H]1CNC[C@H]1c1cccs1` (racemic) [Compound I-22, (±)-trans-N-(Biphenyl-3-yl)-4-(thiophen-2-yl)pyrrolidine-3-carboxamide hydrochloride] showed an EC50 of less than 1 µM.
`O=C(Nc1cccc2ocnc12)[C@H]1CNC[C@@H]1c1ccccc1` (racemic) [Compound I-76, (±)-trans-N-(1,3-Benzoxazol-4-yl)-4-phenylpyrrolidine-3-carboxamide dihydrochloride] was tested, and the EC50 was greater than 50 µM.
Compound `O=C(Nc1cccc2cnccc12)[C@H]1CNC[C@@H]1c1ccc(C(F)(F)F)cc1` [Compound I-82, (3R,4S)-4-(4-Trifluorophenyl)-N-(isoquinolin-5-yl)pyrrolidine-3-carboxamide dihydrochloride] has an EC50 greater than 50 µM.
Work on `O=C(NC1CN(c2ccc(F)cc2)C1)[C@@H]1CNC[C@H]1c1ccccc1` [Compound I-118, (3S,4R)-4-Phenyl-N-(1-4-fluorophenylazetidin-3-yl)pyrrolidine-3-carboxamide hydrochloride] yielded an EC50 of less than 1 µM.
Compound `O=C(N[C@@H]1CNC[C@H]1c1ccccc1)c1cccc2cnccc12` (racemic) [Compound I-9, (±)-trans-N-(4-Phenylpyrrolidin-3-yl)isoquinoline-5-carboxamide] has an EC50 of 1 to 10 µM.
In the case of `O=C(c1cccc2cnccc12)[C@H]1CNC[C@@H]1c1ccccc1` (racemic) [Compound I-100, (±)-trans Isoquinolin-5-yl[(3S,4R)-4-phenylpyrrolidin-3-yl]methanone dihydrochloride], the EC50 is reported as 1 to 10 µM.
`O=C(Nc1cccc(Oc2ccc(F)cc2)c1)[C@H]1CNC[C@@H]1c1ccccc1` (racemic) [Compound I-93, (±)-trans-N-[3-(4-Fluorophenoxy)phenyl]-4-phenylpyrrolidine-3-carboxamide hydrochloride] gave an EC50 of less than 1 µM.
With `O=C(Nc1cccc(-c2cccnc2)c1)[C@H]1CNC[C@@H]1Cc1ccccc1` (racemic) [Compound I-72, (±)-trans 4-Benzyl-N-[3-(pyridin-3-yl)phenyl]pyrrolidine-3-carboxamide dihydrochloride] the EC50 was greater than 50 µM.
`O=C(Nc1cccnc1)[C@H]1CNC[C@@H]1c1ccccc1` (racemic) [Compound I-19, (±)-trans-4-Phenyl-N-(pyridin-3-yl)pyrrolidine-3-carboxamide dihydrochloride] showed an EC50 greater than 50 µM.
Work on `S=C(Nc1cccc2cnccc12)N[C@@H]1CNC[C@H]1c1ccccc1` (racemic) [Compound I-7, (±)-trans-1-Isoquinolin-5-yl-3-(4-phenylpyrrolidin-3-yl)thiourea] yielded an EC50 of 1 to 10 µM.
With `O=C(Nc1cccc(-c2cccnc2)c1)[C@@H]1CN(c2ccccc2)C[C@H]1c1ccccc1` (racemic) [Compound I-62, (±)-trans-1,4-Diphenyl-N-[3-(pyridin-3-yl)phenyl]pyrrolidine-3-carboxamide] the EC50 was less than 1 µM.
Compound `O=C(Nc1ccc(-c2ccccc2)cc1)[C@@H]1CNC[C@H]1c1ccccc1` (racemic) [Compound I-24, (±)-trans-N-(Biphenyl-4-yl)-4-phenylpyrrolidine-3-carboxamide hydrochloride] has an EC50 of 1 to 10 µM.
`O=C(Nc1cccc2cccnc12)[C@@H]1CNC[C@H]1c1ccccc1` (racemic) [Compound I-18, (±)-trans-4-Phenyl-N-(quinolin-8-yl)pyrrolidine-3-carboxamide dihydrochloride] gave an EC50 of 10 to 50 µM.
Work on `O=C(N[C@H]1C[C@H](c2ccccc2)C1)[C@@H]1CNC[C@H]1c1ccccc1` [Compound I-117, (3S,4R)-4-Phenyl-N-(trans-3-phenylcyclobutyl)pyrrolidine-3-carboxamide hydrochloride] yielded an EC50 of 1 to 10 µM.
Work on `O=C(Nc1ccc(-c2ccc(C(F)(F)F)nc2)cc1)[C@@H]1CNC[C@H]1c1ccccc1` [Compound I-103, (3S,4R)-4-Phenyl-N-[4-[6-(trifluoromethyl)pyridin-3-yl]phenyl]pyrrolidine-3-carboxamide hydrochloride] yielded an EC50 of less than 1 µM.
`O=C(Nc1cccc2ccccc12)[C@H]1CNC[C@@H]1c1ccc(C(F)(F)F)cc1` [Compound I-109, (3R,4S)—N-(Naphthalen-1-yl)-4-[4-(trifluoromethyl)phenyl]pyrrolidine-3-carboxamide hydrochloride] was tested, and the EC50 was 1 to 10 µM.
`N#Cc1ccc(Oc2cccc(NC(=O)[C@H]3CNC[C@@H]3c3ccccc3)c2)cc1` (racemic) [Compound I-90, (±)-trans-N-[3-(4-Cyanophenoxy)phenyl]-4-phenylpyrrolidine-3-carboxamide hydrochloride] was tested, and the EC50 was less than 1 µM.
With `O=C(NCc1cccc2cnccc12)[C@H]1CNC[C@@H]1c1ccccc1` [Compound I-67, (3R,4S)—N-(Isoquinolin-5-ylmethyl)-4-phenylpyrrolidine-3-carboxamide dihydrochloride] the EC50 was greater than 50 µM.
With `O=C(Nc1ccc(C2CCCCC2)cc1)[C@@H]1CNC[C@H]1c1ccccc1` (racemic) [Compound I-87, (±)-trans-N-(4-Cyclohexylphenyl)-4-phenylpyrrolidine-3-carboxamide hydrochloride] the EC50 was 1 to 10 µM.
Work on `O=C(Nc1nccc2ccccc12)[C@@H]1CNC[C@H]1c1ccccc1` (racemic) [Compound I-12, (±)-trans-N-(Isoquinolin-1-yl)-4-phenylpyrrolidine-3-carboxamide dihydrochloride] yielded an EC50 greater than 50 µM.
With `O=C(NCc1ccccc1)[C@H]1CNC[C@@H]1c1ccccc1` [Compound I-33, (3R,4S)—N-Benzyl-4-phenylpyrrolidine-3-carboxamide hydrochloride] the EC50 was 10 to 50 µM.
With `O=C(Nc1ccc(-c2ccc(F)nc2)cc1)[C@@H]1CNC[C@H]1c1ccccc1` [Compound I-108, (3S,4R)—N-[4-(6-Fluoropyridin-3-yl)phenyl]-4-phenylpyrrolidine-3-carboxamide dihydrochloride] the EC50 was less than 1 µM.
`CN(C(=O)[C@H]1CNC[C@@H]1c1ccccc1)c1cccc2cnccc12` [Compound I-57, (3R,4S)—N-(Isoquinolin-5-yl)-N-methyl-4-phenylpyrrolidine-3-carboxamide dihydrochloride] showed an EC50 greater than 50 µM.
For `Cc1nccc2c(NC(=O)[C@H]3CNC[C@@H]3c3ccc(C(F)(F)F)cc3)cccc12` [Compound I-96, (3R,4S)—N-(1-Methylisoquinolin-5-yl)-4-[4-(trifluoromethyl)phenyl]pyrrolidine-3-carboxamide dihydrochloride], the EC50 was 1 to 10 µM.
Work on `O=C([C@@H]1CNC[C@H]1c1ccccc1)N1CC(c2cccnc2)C1` (racemic) [Compound I-48, (±)-trans-(4-Phenylpyrrolidin-3-yl)[3-(pyridin-3-yl)azetidin-1-yl]methanone dihydrochloride] yielded an EC50 greater than 50 µM.
